Results: PubChem BioAssay AID1963873 (Molecular Pharmacology Branch, DTP, NCI, 2024)

System: 276233-004-R-J1-PDC KRAS spheroids with HUVEC/MSC, viability
Test: Anticancer human tumor 276233-004-R-J1-PDC patient-derived colon adenocarcinoma cell line growth inhibition [KRAS2]
Conditions: for IC50: curve of first compound; for viability, T/C: stronger effect = lower value; active = viability on the fitted dose curve at most 10% of control; inactive = the rest
Description: Multicellular complex tumor spheroid response to RAS pathway inhibitors in combination with a targeted agents in patient-derived cell lines with oncogenic KRAS variants from multiple cancer types
A high-throughput screen of multi-cell type tumor spheroids was designed to identify active combinations of targeted small molecules and KRAS pathway inhibitors. Complex spheroids include a stromal component modeled by human endothelial cells (HUVEC) and fibroblasts modeled by human mesenchymal stem cells (MSCs). The concentration ranges selected for each drug and investigational agent were based upon clinically achievable concentrations if the clinical Cmax of the agent was known.
Compounds. The drugs and investigational agents: BI-3406 (NSC825286), BAY-293 (NSC824723), batoprotafib (TNO155; NSC825523), sotorasib (AMG 510; NSC818433), MRTX1257 (NSC819558), elimusertib (BAY 1895344; NSC800525), molibresib (GSK525762; NSC774829), temuterkib (LY3214996; NSC803410), venetoclax (NSC766270), alisertib (NSC759677), olaparib (NSC753686), talazoparib (NSC767125), erdafitinib (NSC781556), ipatasertib (NSC767898), cabozantinib (NSC761068), nintedanib (NSC756659), abemaciclib (NSC768073), docetaxel (NSC628503), trametinib (NSC758246), and sapanisertib (NSC764658) were obtained from the National Cancer Institute (NCI) Developmental Therapeutics Program Chemical Repository. The FDA-approved anticancer drug set is available from the Developmental Therapeutics Program. […] The stock solutions were prepared in dimethyl sulfoxide (DMSO, Sigma-Aldrich, St. Louis, MO, cat. D2650) at 800-fold the tested concentration and stored at -70 degrees C prior to their use. All drugs and investigational agents were tested over a range starting from a high concentration at or near the clinical Cmax and decreasing in half-log increments. If the clinical Cmax for an agent had not been determined, the highest concentration tested was 10 microM.
Cell Culture. All cells were maintained in an incubator at 37 degrees C and 5% CO2 with 95% humidity. The PDC lines were cultured according to standard operating procedures established by the NCI PDMR (https://pdmr.cancer.gov/sops/default.htm). Briefly, all PDCs were thawed and cultured in Matrigel-coated flasks prepared with a working solution of 1X Ham's F-12 nutrient mix, without supplementation (Invitrogen, Waltham, MA, cat. 11765054), 100 U/mL penicillin-streptomycin (Invitrogen, cat. 15140122), and 2.5% Matrigel (Corning Inc., Corning, NY, cat. 354248) for the first three passages. All PDCs were cultured in complete DMEM/F-12 media containing advanced DMEM/F-12 (Invitrogen, cat. 12634028), 4.9% defined fetal bovine serum, heat inactivated (HyClone Laboratories Inc., Logan, UT, cat. SH30070.03HI), 389 ng/mL hydrocortisone (Sigma-Aldrich, cat. H4001), 9.7 ng/mL human EGF recombinant protein (Invitrogen, cat. PHG0313), 23.4 microg/mL adenine (Sigma-Aldrich, cat. A2786), 97.3 U/mL penicillin-streptomycin (Invitrogen, cat. 15140122), 1.9 mM L-glutamine (Invitrogen, cat. 25030081), and 9.7 microM Y-27632 dihydrochloride (Tocris Bioscience, Bristol, United Kingdom, cat. 1254). The PDCs were cultured in complete DMEM/F12 media without 9.7 microM Y-27632 dihydrochloride for at least two passages prior to the screen. The established cell line HOP-62 was cultured in RPMI 1640 medium, HEPES (Invitrogen, cat. 22400105) with 10% defined fetal bovine serum (HyClone Laboratories Inc., cat. SH30070.03) and 2 mM L-glutamine (Invitrogen, cat. 25030081). The pooled donor HUVEC were cultured in endothelial cell growth medium 2 (PromoCell, Heidelberg, Germany, cat. C-22011) and the hMSC were cultured in mesenchymal stem cell growth medium 2 (PromoCell, cat. C-28009). For all experiments, HUVEC and hMSC were used at passages </=5, while the malignant cell lines were used at passages </=15. […]

[1] = second compound 0.1 µM, first compound 0.00316 µM
[2] = second compound 0.1 µM, first compound 0.01 µM
[3] = second compound 0.1 µM, first compound 0.0316 µM
[4] = second compound 0.1 µM, first compound 0.1 µM
[5] = second compound 0.316 µM, first compound 0.00316 µM
[6] = second compound 0.316 µM, first compound 0.01 µM
[7] = second compound 0.316 µM, first compound 0.0316 µM
[8] = second compound 0.316 µM, first compound 0.1 µM
[9] = second compound 1 µM, first compound 0.00316 µM
[10] = second compound 1 µM, first compound 0.01 µM
[11] = second compound 1 µM, first compound 0.0316 µM
[12] = second compound 1 µM, first compound 0.1 µM
[13] = second compound 3.16 µM, first compound 0.00316 µM
[14] = second compound 3.16 µM, first compound 0.01 µM
[15] = second compound 3.16 µM, first compound 0.0316 µM
[16] = second compound 3.16 µM, first compound 0.1 µM
[17] = second compound 10 µM, first compound 0.00316 µM
[18] = second compound 10 µM, first compound 0.01 µM
[19] = second compound 10 µM, first compound 0.0316 µM
[20] = second compound 10 µM, first compound 0.1 µM
[21] = second compound 0.1 µM, first compound 0.316 µM
[22] = second compound 0.1 µM, first compound 1 µM
[23] = second compound 0.1 µM, first compound 3.16 µM
[24] = second compound 0.1 µM, first compound 10 µM
[25] = second compound 0.316 µM, first compound 0.316 µM
[26] = second compound 0.316 µM, first compound 1 µM
[27] = second compound 0.316 µM, first compound 3.16 µM
[28] = second compound 0.316 µM, first compound 10 µM
[29] = second compound 1 µM, first compound 0.316 µM
[30] = second compound 1 µM, first compound 1 µM
[31] = second compound 1 µM, first compound 3.16 µM
[32] = second compound 1 µM, first compound 10 µM
[33] = second compound 3.16 µM, first compound 0.316 µM
[34] = second compound 3.16 µM, first compound 1 µM
[35] = second compound 3.16 µM, first compound 3.16 µM
[36] = second compound 3.16 µM, first compound 10 µM
[37] = second compound 10 µM, first compound 0.316 µM
[38] = second compound 10 µM, first compound 1 µM
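Note: cells exposed to agents for seven days before viability read.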
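Throughout, for viability, T/C: 100% = DMSO vehicle control wells and lower values mean fewer viable cells.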

Cn1ncnc1[C@H]1c2n[nH]c(=O)c3cc(F)cc(c23)N[C@@H]1c1ccc(F)cc1 + COc1cc2nc(C)nc(NC(C)c3cc(N)cc(C(F)(F)F)c3)c2cc1OC1CCOC1
< 0.316 nM: IC50 (second compound 10 µM)
> 100 nM: IC50 (second compound 0.1 µM) | IC50 (second compound 0.316 µM) | IC50 (second compound 1 µM) | IC50 (second compound 3.16 µM)
inactive: viability, T/C (second compound 0.1 µM, first compound 0.000316 µM) 90% | viability, T/C (second compound 0.1 µM, first compound 0.001 µM) 81% | viability, T/C [1] 76.2% | viability, T/C [2] 87.1% | viability, T/C [3] 89.7% | viability, T/C [4] 76% | viability, T/C (second compound 0.316 µM, first compound 0.000316 µM) 89.1% | viability, T/C (second compound 0.316 µM, first compound 0.001 µM) 96.7% | viability, T/C [5] 84.7% | viability, T/C [6] 83.6% | viability, T/C [7] 87.9% | viability, T/C [8] 83.2% | viability, T/C (second compound 1 µM, first compound 0.000316 µM) 83.3% | viability, T/C (second compound 1 µM, first compound 0.001 µM) 91% | viability, T/C [9] 82.6% | viability, T/C [10] 85% | viability, T/C [11] 87.6% | viability, T/C [12] 79.5% | viability, T/C (second compound 3.16 µM, first compound 0.000316 µM) 85.3% | viability, T/C (second compound 3.16 µM, first compound 0.001 µM) 90.9% | viability, T/C [13] 85.2% | viability, T/C [14] 99.5% | viability, T/C [15] 68.1% | viability, T/C [16] 86.1% | viability, T/C (second compound 10 µM, first compound 0.000316 µM) 33.7% | viability, T/C (second compound 10 µM, first compound 0.001 µM) 40.1% | viability, T/C [17] 29.1% | viability, T/C [18] 34.8% | viability, T/C [19] 29.4% | viability, T/C [20] 27.2%

O=C(c1cc(Cc2n[nH]c(=O)c3ccccc23)ccc1F)N1CCN(C(=O)C2CC2)CC1 + CC1OCC2(CCN(c3cnc(Sc4ccnc(N)c4Cl)c(N)n3)CC2)C1N
233 nM: IC50 (second compound 3.16 µM)
> 10000 nM: IC50 (second compound 0.1 µM) | IC50 (second compound 0.316 µM) | IC50 (second compound 1 µM)
inactive: viability, T/C [3] 75.3% | viability, T/C [4] 84.9% | viability, T/C [21] 85.4% | viability, T/C [22] 81.8% | viability, T/C [23] 79.4% | viability, T/C [24] 62.5% | viability, T/C [7] 76.6% | viability, T/C [8] 78.5% | viability, T/C [25] 65.7% | viability, T/C [26] 71.7% | viability, T/C [27] 64.9% | viability, T/C [28] 65% | viability, T/C [11] 95.6% | viability, T/C [12] 67.9% | viability, T/C [29] 59.4% | viability, T/C [30] 54.2% | viability, T/C [31] 51% | viability, T/C [32] 52.9% | viability, T/C [15] 54.4% | viability, T/C [16] 52.8% | viability, T/C [33] 45.1% | viability, T/C [34] 50.6% | viability, T/C [35] 44.4% | viability, T/C [36] 43.3% | viability, T/C [19] 55.9% | viability, T/C [20] 47.1% | viability, T/C [37] 41.4% | viability, T/C [38] 42.7% | viability, T/C (second compound 10 µM, first compound 3.16 µM) 37.5% | viability, T/C (second compound 10 µM, first compound 10 µM) 36.6%
70.7 nM: IC50 (second compound 10 µM)

O=C(c1cc(Cc2n[nH]c(=O)c3ccccc23)ccc1F)N1CCN(C(=O)C2CC2)CC1 + C=CC(=O)N1CCN(c2nc(OCC3CCCN3C)nc3c2CCN(c2cccc4cccc(C)c24)C3)CC1CC#N
< 31.6 nM: IC50 (second compound 3.16 µM)
> 10000 nM: IC50 (second compound 0.0316 µM) | IC50 (second compound 0.1 µM) | IC50 (second compound 0.316 µM) | IC50 (second compound 1 µM)
inactive: viability, T/C (second compound 0.0316 µM, first compound 0.0316 µM) 114% | viability, T/C (second compound 0.0316 µM, first compound 0.1 µM) 109% | viability, T/C (second compound 0.0316 µM, first compound 0.316 µM) 101% | viability, T/C (second compound 0.0316 µM, first compound 1 µM) 93.9% | viability, T/C (second compound 0.0316 µM, first compound 3.16 µM) 91.2% | viability, T/C (second compound 0.0316 µM, first compound 10 µM) 82.5% | viability, T/C [3] 98.1% | viability, T/C [4] 109% | viability, T/C [21] 100% | viability, T/C [22] 87% | viability, T/C [23] 87.1% | viability, T/C [24] 83.1% | viability, T/C [7] 110% | viability, T/C [8] 94.8% | viability, T/C [25] 93.4% | viability, T/C [26] 68.7% | viability, T/C [27] 83.4% | viability, T/C [28] 76.3% | viability, T/C [11] 81.5% | viability, T/C [12] 89.8% | viability, T/C [29] 110% | viability, T/C [30] 87.6% | viability, T/C [31] 82.8% | viability, T/C [32] 85% | viability, T/C [15] 55.4% | viability, T/C [16] 37.9% | viability, T/C [33] 57.2% | viability, T/C [34] 43.9% | viability, T/C [35] 44.9% | viability, T/C [36] 37.1%

CCN1CCN(Cc2ccc(Nc3ncc(F)c(-c4cc(F)c5nc(C)n(C(C)C)c5c4)n3)nc2)CC1 + COc1cc2nc(C)nc(NC(C)c3cc(N)cc(C(F)(F)F)c3)c2cc1OC1CCOC1
active: viability, T/C [37] 4.33% | viability, T/C [38] 2.22%
> 1000 nM: IC50 (second compound 0.1 µM) | IC50 (second compound 0.316 µM) | IC50 (second compound 1 µM) | IC50 (second compound 3.16 µM)
< 3.16 nM: IC50 (second compound 10 µM)
inactive: viability, T/C [1] 89.2% | viability, T/C [2] 98.1% | viability, T/C [3] 88.7% | viability, T/C [4] 84.5% | viability, T/C [21] 91.5% | viability, T/C [22] 115% | viability, T/C [5] 110% | viability, T/C [6] 80.9% | viability, T/C [7] 82.4% | viability, T/C [8] 107% | viability, T/C [25] 98.8% | viability, T/C [26] 86.8% | viability, T/C [9] 105% | viability, T/C [10] 88% | viability, T/C [11] 101% | viability, T/C [12] 80.2% | viability, T/C [29] 96.9% | viability, T/C [30] 102% | viability, T/C [13] 82.2% | viability, T/C [14] 96.5% | viability, T/C [15] 74.1% | viability, T/C [16] 81.1% | viability, T/C [33] 89.4% | viability, T/C [34] 74.3% | viability, T/C [17] 47.1% | viability, T/C [18] 44.4% | viability, T/C [19] 26% | viability, T/C [20] 19.7%
